Assay results reported in ChEMBL document CHEMBL1909046, “DrugMatrix in vitro pharmacology data”.

Biological target: Substance-P receptor (Homo sapiens, UniProt P25103); further: in other assays of this panel Not Active means under 50% inhibition at 10 µM
Assay: not given
Format: cell membranes, CHO, Membrane
Settings: cho

Sequence of Substance-P receptor (P25103 whole entry): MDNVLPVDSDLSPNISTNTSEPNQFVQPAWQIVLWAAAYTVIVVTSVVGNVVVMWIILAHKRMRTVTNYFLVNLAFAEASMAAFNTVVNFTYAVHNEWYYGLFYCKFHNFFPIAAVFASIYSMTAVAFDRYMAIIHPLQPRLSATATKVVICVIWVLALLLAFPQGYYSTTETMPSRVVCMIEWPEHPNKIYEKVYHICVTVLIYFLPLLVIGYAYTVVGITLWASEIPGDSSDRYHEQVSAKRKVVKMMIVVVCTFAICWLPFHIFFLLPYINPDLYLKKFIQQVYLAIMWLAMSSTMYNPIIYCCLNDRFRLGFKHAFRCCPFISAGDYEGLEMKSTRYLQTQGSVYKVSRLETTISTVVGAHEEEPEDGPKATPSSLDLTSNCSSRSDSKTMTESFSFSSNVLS

SMILES | IC50
CSc1ccc2c(c1)N(CCC1CCCCN1C)c1ccccc1S2 (stereo unspecified) [THIORIDAZINE] | Not Active
CC(C)(C)NCC(O)c1ccc(O)c(CO)c1 (stereo unspecified) [ALBUTEROL] | Not Active
O=C(CCCN1CCC(O)(c2ccc(Cl)cc2)CC1)c1ccc(F)cc1 [HALOPERIDOL] | Not Active
CC(C)(O)c1ccccc1CC[C@@H](SCC1(CC(=O)O)CC1)c1cccc(/C=C/c2ccc3ccc(Cl)cc3n2)c1 [MONTELUKAST] | Not Active

Biological target: Mitogen-activated protein kinase 14 (Homo sapiens, UniProt Q16539);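 further: inhibition of p38alpha enzyme activity in a biochemical kinase assay, with myelin basic protein serving as substrate; in other assays of this panel Not Active means under 50% inhibition at 10 µM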
Assay: not given
Design: species or system Escherichia coli
Settings: not given

Sequence of Mitogen-activated protein kinase 14 (Q16539 whole entry): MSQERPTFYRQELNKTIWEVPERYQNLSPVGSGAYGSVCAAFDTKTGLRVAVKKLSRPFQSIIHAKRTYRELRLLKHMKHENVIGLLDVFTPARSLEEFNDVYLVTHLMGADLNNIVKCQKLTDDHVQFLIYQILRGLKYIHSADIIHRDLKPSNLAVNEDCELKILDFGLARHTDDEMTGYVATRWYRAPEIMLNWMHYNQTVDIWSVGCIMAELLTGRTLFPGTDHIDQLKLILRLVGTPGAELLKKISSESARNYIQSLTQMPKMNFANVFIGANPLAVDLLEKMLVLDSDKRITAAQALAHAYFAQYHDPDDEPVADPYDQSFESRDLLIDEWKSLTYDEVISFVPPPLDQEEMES

SMILES | IC50
CSc1ccc2c(c1)N(CCC1CCCCN1C)c1ccccc1S2 (stereo unspecified) [THIORIDAZINE] | Not Active
CC(C)(C)NCC(O)c1ccc(O)c(CO)c1 (stereo unspecified) [ALBUTEROL] | Not Active
O=C(CCCN1CCC(O)(c2ccc(Cl)cc2)CC1)c1ccc(F)cc1 [HALOPERIDOL] | Not Active

Same assay, conditions: read-out: IC50

SMILES | IC50 [nM]
CC(C)(O)c1ccccc1CC[C@@H](SCC1(CC(=O)O)CC1)c1cccc(/C=C/c2ccc3ccc(Cl)cc3n2)c1 [MONTELUKAST] | 856

Biological target: T1, Cholecystokinin receptor type A (Homo sapiens, UniProt P32238); further: in other assays of this panel Not Active means under 50% inhibition at 10 µM
T1 sequence (P32238 whole entry): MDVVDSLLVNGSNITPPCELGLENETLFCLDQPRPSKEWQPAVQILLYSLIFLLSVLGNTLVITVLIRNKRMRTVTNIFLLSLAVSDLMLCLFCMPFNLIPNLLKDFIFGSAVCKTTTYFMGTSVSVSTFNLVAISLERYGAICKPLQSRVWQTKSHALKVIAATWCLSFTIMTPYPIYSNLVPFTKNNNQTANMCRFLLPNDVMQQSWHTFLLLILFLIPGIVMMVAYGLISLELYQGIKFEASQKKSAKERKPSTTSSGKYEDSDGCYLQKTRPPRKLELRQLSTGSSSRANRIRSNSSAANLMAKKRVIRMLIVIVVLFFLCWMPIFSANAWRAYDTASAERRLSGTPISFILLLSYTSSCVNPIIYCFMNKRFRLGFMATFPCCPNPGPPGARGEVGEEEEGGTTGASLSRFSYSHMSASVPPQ
Assay: not given
Format: cell membranes, Membrane
Settings: 1321-n1

SMILES | IC50
CSc1ccc2c(c1)N(CCC1CCCCN1C)c1ccccc1S2 (stereo unspecified) [THIORIDAZINE] | Not Active
CC(C)(C)NCC(O)c1ccc(O)c(CO)c1 (stereo unspecified) [ALBUTEROL] | Not Active
O=C(CCCN1CCC(O)(c2ccc(Cl)cc2)CC1)c1ccc(F)cc1 [HALOPERIDOL] | Not Active
CC(C)(O)c1ccccc1CC[C@@H](SCC1(CC(=O)O)CC1)c1cccc(/C=C/c2ccc3ccc(Cl)cc3n2)c1 [MONTELUKAST] | Not Active

Biological target: Vascular endothelial growth factor receptor 1 (Homo sapiens, UniProt P17948); further: in other assays of this panel Not Active means under 50% inhibition at 10 µM
Assay: not given
Format: cell-based
Settings: huvec

Sequence of Vascular endothelial growth factor receptor 1 (P17948 whole entry): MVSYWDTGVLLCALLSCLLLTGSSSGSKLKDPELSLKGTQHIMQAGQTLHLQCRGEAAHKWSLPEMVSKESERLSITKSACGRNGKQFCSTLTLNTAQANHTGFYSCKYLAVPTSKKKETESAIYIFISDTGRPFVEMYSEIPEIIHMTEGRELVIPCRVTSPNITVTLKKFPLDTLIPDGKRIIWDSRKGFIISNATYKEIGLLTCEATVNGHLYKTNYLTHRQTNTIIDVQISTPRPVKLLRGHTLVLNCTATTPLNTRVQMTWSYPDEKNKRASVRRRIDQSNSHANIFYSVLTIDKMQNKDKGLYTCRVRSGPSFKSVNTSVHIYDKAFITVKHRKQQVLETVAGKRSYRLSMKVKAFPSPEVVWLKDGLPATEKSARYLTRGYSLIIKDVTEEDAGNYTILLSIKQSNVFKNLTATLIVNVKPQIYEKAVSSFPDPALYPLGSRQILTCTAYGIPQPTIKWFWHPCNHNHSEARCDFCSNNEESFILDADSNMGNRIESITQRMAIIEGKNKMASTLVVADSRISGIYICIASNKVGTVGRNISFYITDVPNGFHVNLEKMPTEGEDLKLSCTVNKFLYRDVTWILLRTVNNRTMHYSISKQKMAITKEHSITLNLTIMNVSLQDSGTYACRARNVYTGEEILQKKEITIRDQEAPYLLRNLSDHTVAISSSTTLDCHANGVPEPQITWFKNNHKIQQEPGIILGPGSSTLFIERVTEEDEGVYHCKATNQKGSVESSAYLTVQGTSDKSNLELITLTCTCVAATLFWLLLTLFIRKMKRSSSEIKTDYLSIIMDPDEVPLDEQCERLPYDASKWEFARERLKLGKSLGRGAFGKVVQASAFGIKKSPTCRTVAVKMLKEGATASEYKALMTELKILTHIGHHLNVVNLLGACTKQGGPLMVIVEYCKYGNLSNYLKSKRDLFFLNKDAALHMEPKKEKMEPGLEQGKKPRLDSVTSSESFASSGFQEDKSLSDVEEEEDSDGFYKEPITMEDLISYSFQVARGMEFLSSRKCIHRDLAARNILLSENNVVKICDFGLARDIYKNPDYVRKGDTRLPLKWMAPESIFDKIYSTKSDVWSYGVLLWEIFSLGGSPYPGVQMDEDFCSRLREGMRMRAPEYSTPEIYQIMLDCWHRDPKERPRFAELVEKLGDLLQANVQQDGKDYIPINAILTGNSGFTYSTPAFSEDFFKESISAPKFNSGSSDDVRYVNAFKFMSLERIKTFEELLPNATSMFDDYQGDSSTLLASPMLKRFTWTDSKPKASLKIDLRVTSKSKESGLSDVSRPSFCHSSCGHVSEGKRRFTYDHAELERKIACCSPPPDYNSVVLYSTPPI

SMILES | IC50
CSc1ccc2c(c1)N(CCC1CCCCN1C)c1ccccc1S2 (stereo unspecified) [THIORIDAZINE] | Not Active
CC(C)(C)NCC(O)c1ccc(O)c(CO)c1 (stereo unspecified) [ALBUTEROL] | Not Active
O=C(CCCN1CCC(O)(c2ccc(Cl)cc2)CC1)c1ccc(F)cc1 [HALOPERIDOL] | Not Active
CC(C)(O)c1ccccc1CC[C@@H](SCC1(CC(=O)O)CC1)c1cccc(/C=C/c2ccc3ccc(Cl)cc3n2)c1 [MONTELUKAST] | Not Active

Biological target: 5-hydroxytryptamine receptor 2B (Homo sapiens, UniProt P41595); further: in other assays of this panel Not Active means under 50% inhibition at 10 µM
Assay: not given
Format: cell membranes, CHO-K1, Membrane
Settings: cho-k1

Sequence of 5-hydroxytryptamine receptor 2B (P41595 whole entry): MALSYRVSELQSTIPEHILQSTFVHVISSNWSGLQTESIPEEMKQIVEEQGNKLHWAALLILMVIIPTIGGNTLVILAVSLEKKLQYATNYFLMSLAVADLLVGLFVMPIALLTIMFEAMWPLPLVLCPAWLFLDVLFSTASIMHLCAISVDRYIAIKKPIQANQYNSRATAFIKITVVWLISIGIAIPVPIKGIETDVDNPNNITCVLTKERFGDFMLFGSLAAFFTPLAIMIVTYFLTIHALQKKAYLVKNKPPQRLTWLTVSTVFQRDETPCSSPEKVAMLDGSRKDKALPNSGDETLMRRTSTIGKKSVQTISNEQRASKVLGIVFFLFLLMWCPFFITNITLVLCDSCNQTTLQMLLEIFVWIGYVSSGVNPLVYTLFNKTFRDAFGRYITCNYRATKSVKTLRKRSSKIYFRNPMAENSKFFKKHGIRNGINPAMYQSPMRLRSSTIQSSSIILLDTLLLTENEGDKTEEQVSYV

SMILES | IC50
CC(C)(C)NCC(O)c1ccc(O)c(CO)c1 (stereo unspecified) [ALBUTEROL] | Not Active

System: not listed separately
Assay: DRUGMATRIX: Atrial Natriuretic Factor (ANF) radioligand binding (ligand: [125I] ANF (rat))
Format: cell membranes, Cavia porcellus, Dunkin-Hartley, Adrenal gland, Membrane
Settings: Not Active = under 50% inhibition at 10 µM

SMILES | IC50 | Ki
CC(C)(C)NCC(O)c1ccc(O)c(CO)c1 (stereo unspecified) [ALBUTEROL] | Not Active | Not Active

Biological target: D(3) dopamine receptor (Homo sapiens, UniProt P35462)
Assay: DRUGMATRIX: Dopamine D3 radioligand binding (ligand: [3H] Spiperone)
Format: cell membranes, CHO, Membrane
Settings: cho

Sequence of D(3) dopamine receptor (P35462 whole entry): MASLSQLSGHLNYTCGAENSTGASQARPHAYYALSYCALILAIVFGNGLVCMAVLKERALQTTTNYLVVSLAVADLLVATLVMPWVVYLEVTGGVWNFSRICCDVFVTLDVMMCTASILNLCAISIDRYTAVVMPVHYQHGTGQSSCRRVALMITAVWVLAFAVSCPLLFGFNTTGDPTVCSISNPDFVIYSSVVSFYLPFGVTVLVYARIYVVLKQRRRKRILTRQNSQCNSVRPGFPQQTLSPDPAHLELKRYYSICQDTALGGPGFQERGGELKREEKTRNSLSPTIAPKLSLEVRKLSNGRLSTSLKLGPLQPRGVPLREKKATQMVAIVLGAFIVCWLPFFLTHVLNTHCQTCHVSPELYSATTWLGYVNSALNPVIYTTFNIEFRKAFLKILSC

SMILES | IC50
CC(C)(C)NCC(O)c1ccc(O)c(CO)c1 (stereo unspecified) [ALBUTEROL] | Not Active

Biological target: D(1A) dopamine receptor (Homo sapiens, UniProt P21728)
Assay: DRUGMATRIX: Dopamine D1 radioligand binding (ligand: [3H] SCH-23390)
Format: cell membranes, CHO, Membrane
Settings: cho; Not Active = under 50% inhibition at 10 µM

Sequence of D(1A) dopamine receptor (P21728 whole entry): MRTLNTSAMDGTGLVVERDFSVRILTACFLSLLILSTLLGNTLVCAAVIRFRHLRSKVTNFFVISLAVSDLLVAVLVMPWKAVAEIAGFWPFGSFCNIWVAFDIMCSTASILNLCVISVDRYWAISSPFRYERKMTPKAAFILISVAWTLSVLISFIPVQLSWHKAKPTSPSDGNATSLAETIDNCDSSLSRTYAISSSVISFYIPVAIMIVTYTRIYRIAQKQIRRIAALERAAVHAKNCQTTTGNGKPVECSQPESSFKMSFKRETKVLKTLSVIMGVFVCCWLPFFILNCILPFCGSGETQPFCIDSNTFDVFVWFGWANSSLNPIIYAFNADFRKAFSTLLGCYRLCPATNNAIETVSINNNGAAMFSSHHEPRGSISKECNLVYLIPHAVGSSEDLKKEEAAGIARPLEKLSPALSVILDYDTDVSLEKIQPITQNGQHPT

SMILES | IC50
CC(C)(C)NCC(O)c1ccc(O)c(CO)c1 (stereo unspecified) [ALBUTEROL] | Not Active

System: not listed separately
Assay: DRUGMATRIX: Calcium Channel Type L, Dihydropyridine radioligand binding (ligand: [3H] Nitrendipine)
Format: cell membranes, Rattus norvegicus, Wistar, Cerebral cortex, Membrane
Settings: Not Active = under 50% inhibition at 10 µM

SMILES | IC50 | Ki
CC(C)(C)NCC(O)c1ccc(O)c(CO)c1 (stereo unspecified) [ALBUTEROL] | Not Active | Not Active

Biological target: T2, Adenosine receptor A1 (Homo sapiens, UniProt P30542)
T2 sequence (P30542 whole entry): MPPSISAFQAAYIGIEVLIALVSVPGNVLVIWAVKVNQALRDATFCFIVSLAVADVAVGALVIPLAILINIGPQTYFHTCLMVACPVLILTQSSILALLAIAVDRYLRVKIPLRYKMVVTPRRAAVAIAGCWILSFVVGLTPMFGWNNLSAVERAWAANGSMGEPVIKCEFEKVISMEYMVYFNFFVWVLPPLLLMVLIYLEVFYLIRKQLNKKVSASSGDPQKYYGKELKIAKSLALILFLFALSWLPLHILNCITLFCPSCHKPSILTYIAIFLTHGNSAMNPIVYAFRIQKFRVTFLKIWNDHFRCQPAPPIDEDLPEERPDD
Assay: not given
Format: cell membranes, CHO, Membrane
Settings: cho

SMILES | IC50
CSc1ccc2c(c1)N(CCC1CCCCN1C)c1ccccc1S2 (stereo unspecified) [THIORIDAZINE] | Not Active
CC(C)(C)NCC(O)c1ccc(O)c(CO)c1 (stereo unspecified) [ALBUTEROL] | Not Active
O=C(CCCN1CCC(O)(c2ccc(Cl)cc2)CC1)c1ccc(F)cc1 [HALOPERIDOL] | Not Active
CC(C)(O)c1ccccc1CC[C@@H](SCC1(CC(=O)O)CC1)c1cccc(/C=C/c2ccc3ccc(Cl)cc3n2)c1 [MONTELUKAST] | Not Active

Biological target: C-C chemokine receptor type 5 (Homo sapiens, UniProt P51681); further: in other assays of this panel Not Active means under 50% inhibition at 10 µM
Assay: not given
Format: cell membranes, Membrane
Settings: hek293

Sequence of C-C chemokine receptor type 5 (P51681 whole entry): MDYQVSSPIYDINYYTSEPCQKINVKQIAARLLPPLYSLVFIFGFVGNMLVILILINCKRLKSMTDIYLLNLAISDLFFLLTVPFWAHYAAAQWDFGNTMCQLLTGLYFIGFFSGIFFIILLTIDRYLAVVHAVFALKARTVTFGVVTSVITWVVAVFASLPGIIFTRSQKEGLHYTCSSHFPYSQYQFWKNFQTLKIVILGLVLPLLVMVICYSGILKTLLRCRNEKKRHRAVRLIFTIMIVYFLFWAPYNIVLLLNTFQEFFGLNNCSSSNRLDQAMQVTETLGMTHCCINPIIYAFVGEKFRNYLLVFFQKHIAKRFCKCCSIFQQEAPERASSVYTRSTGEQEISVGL

SMILES | IC50
CSc1ccc2c(c1)N(CCC1CCCCN1C)c1ccccc1S2 (stereo unspecified) [THIORIDAZINE] | Not Active
CC(C)(C)NCC(O)c1ccc(O)c(CO)c1 (stereo unspecified) [ALBUTEROL] | Not Active
O=C(CCCN1CCC(O)(c2ccc(Cl)cc2)CC1)c1ccc(F)cc1 [HALOPERIDOL] | Not Active
CC(C)(O)c1ccccc1CC[C@@H](SCC1(CC(=O)O)CC1)c1cccc(/C=C/c2ccc3ccc(Cl)cc3n2)c1 [MONTELUKAST] | Not Active

System: not listed separately
Assay: DRUGMATRIX: Glutamate, AMPA radioligand binding (ligand: [3H] AMPA)
Format: cell membranes, Rattus norvegicus, Wistar, Cerebral cortex, Membrane
Settings: Not Active = under 50% inhibition at 10 µM

SMILES | IC50 | Ki
CC(C)(C)NCC(O)c1ccc(O)c(CO)c1 (stereo unspecified) [ALBUTEROL] | Not Active | Not Active

Biological target: T3, Polyunsaturated fatty acid lipoxygenase ALOX15 (Oryctolagus cuniculus, UniProt P12530)
T3 sequence (P12530 whole entry): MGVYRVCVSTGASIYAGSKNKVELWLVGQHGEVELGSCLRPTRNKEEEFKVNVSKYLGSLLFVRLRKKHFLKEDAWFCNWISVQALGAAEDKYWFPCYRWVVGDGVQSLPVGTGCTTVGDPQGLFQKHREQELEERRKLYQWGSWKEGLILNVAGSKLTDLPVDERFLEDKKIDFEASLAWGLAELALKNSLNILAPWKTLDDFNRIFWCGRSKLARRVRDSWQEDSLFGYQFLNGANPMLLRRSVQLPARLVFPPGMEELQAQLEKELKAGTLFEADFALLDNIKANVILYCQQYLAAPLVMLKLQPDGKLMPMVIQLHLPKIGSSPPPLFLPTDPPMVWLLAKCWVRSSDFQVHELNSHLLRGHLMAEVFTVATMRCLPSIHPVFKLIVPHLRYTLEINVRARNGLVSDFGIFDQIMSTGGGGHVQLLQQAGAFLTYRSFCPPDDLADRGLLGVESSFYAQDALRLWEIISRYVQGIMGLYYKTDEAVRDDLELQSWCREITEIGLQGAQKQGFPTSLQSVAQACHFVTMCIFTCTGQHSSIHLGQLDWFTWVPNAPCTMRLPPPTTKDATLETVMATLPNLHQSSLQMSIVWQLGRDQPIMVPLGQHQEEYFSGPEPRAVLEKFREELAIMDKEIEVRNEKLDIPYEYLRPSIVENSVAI
Assay: biochemical
Format: tissue-based, Reticulocytes
Settings: reticulocytes

SMILES | IC50
CSc1ccc2c(c1)N(CCC1CCCCN1C)c1ccccc1S2 (stereo unspecified) [THIORIDAZINE] | Not Active
CC(C)(C)NCC(O)c1ccc(O)c(CO)c1 (stereo unspecified) [ALBUTEROL] | Not Active
O=C(CCCN1CCC(O)(c2ccc(Cl)cc2)CC1)c1ccc(F)cc1 [HALOPERIDOL] | Not Active
CC(C)(O)c1ccccc1CC[C@@H](SCC1(CC(=O)O)CC1)c1cccc(/C=C/c2ccc3ccc(Cl)cc3n2)c1 [MONTELUKAST] | Not Active

System: not listed separately
Assay: DRUGMATRIX: beta-Lactamase enzyme inhibition (substrate: Nitrocefin)
Design: species or system Bacillus cereus
Settings: Not Active = under 50% inhibition at 10 µM

SMILES | IC50 | Ki
CC(C)(C)NCC(O)c1ccc(O)c(CO)c1 (stereo unspecified) [ALBUTEROL] | Not Active | Not Active

Biological target: T4, Alpha-2A adrenergic receptor (Homo sapiens, UniProt P08913); further: in other assays of this panel Not Active means under 50% inhibition at 10 µM
T4 sequence (P08913 whole entry): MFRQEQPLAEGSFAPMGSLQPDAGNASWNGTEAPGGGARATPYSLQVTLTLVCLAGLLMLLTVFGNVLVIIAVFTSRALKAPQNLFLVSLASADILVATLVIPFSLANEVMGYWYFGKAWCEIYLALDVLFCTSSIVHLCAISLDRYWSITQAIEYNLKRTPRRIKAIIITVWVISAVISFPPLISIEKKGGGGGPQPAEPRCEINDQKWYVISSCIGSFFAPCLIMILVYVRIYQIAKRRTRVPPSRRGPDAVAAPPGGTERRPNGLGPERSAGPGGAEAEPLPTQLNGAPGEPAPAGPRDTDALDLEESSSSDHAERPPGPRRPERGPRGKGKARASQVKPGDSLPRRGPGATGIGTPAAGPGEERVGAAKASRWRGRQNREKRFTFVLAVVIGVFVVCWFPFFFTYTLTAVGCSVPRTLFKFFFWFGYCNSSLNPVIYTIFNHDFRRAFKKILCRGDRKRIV
Assay: not given
Format: cell membranes, Sf9, Membrane
Settings: sf9

SMILES | IC50
CC(C)(C)NCC(O)c1ccc(O)c(CO)c1 (stereo unspecified) [ALBUTEROL] | Not Active

Biological target: Aldo-keto reductase family 1 member B1 (Rattus norvegicus, UniProt P07943)
Assay: not given
Format: tissue-based, Lens of camera-type eye
Settings: not given

SMILES | IC50
CSc1ccc2c(c1)N(CCC1CCCCN1C)c1ccccc1S2 (stereo unspecified) [THIORIDAZINE] | Not Active
CC(C)(C)NCC(O)c1ccc(O)c(CO)c1 (stereo unspecified) [ALBUTEROL] | Not Active
O=C(CCCN1CCC(O)(c2ccc(Cl)cc2)CC1)c1ccc(F)cc1 [HALOPERIDOL] | Not Active
CC(C)(O)c1ccccc1CC[C@@H](SCC1(CC(=O)O)CC1)c1cccc(/C=C/c2ccc3ccc(Cl)cc3n2)c1 [MONTELUKAST] | Not Active

Biological target: Beta-2 adrenergic receptor (Homo sapiens, UniProt P07550)
Assay: DRUGMATRIX: Adrenergic beta2 radioligand binding (ligand: [3H] CGP-12177)
Format: cell membranes, Membrane
Settings: cho; Not Active = under 50% inhibition at 10 µM

Sequence of Beta-2 adrenergic receptor (P07550 whole entry): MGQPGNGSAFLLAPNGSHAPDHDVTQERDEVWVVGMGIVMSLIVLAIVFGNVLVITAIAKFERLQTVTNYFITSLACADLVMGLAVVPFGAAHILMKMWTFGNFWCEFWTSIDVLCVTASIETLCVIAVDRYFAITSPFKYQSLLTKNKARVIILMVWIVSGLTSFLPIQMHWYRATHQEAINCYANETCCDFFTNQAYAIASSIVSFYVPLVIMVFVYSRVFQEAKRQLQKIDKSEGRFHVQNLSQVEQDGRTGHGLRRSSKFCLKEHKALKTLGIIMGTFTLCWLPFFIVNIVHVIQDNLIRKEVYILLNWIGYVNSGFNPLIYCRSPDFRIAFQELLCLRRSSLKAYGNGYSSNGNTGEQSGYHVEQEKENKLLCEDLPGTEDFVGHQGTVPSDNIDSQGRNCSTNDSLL

SMILES | IC50
CSc1ccc2c(c1)N(CCC1CCCCN1C)c1ccccc1S2 (stereo unspecified) [THIORIDAZINE] | Not Active
O=C(CCCN1CCC(O)(c2ccc(Cl)cc2)CC1)c1ccc(F)cc1 [HALOPERIDOL] | Not Active
